Experimental data from PubChem BioAssay (NCI).
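Grown in 96-well plates, cells were treated for 48 hours with each compound at five concentrations. Insufficient inhibition: endpoint recorded as highest concentration tested. GI50 is the concentration that inhibits growth by half. TGI is the concentration that stops growth completely.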

Columns and labels:
Experiment in all cases: growth of human tumour cells (NCI), 48 h
NCI/ADR-RES ovarian = tested on: NCI/ADR-RES ovarian
LOX IMVI melanoma = tested on: LOX IMVI melanoma
TK-10 renal = tested on: TK-10 renal
RXF 393 renal = tested on: RXF 393 renal
MDA-MB-231 breast = tested on: MDA-MB-231 breast
A498 renal = tested on: A498 renal
HS 578T breast = tested on: HS 578T breast
T-47D breast = tested on: T-47D breast
SR leukemia = tested on: SR leukemia
NCI-H460 lung = tested on: NCI-H460 lung
KM12 colon = tested on: KM12 colon
EKVX NSCLC = tested on: EKVX NSCLC
DLD-1 colon = tested on: DLD-1 colon

Compound | TGI (NCI/ADR-RES ovarian) | TGI (LOX IMVI melanoma) | TGI (TK-10 renal) | TGI (RXF 393 renal) | TGI (MDA-MB-231 breast) | TGI (A498 renal) | TGI (HS 578T breast) | TGI (T-47D breast) | TGI (SR leukemia) | TGI (NCI-H460 lung) | TGI (KM12 colon) | TGI (EKVX NSCLC) | TGI (DLD-1 colon) | GI50 (RXF 393 renal) | GI50 (A498 renal) | GI50 (HS 578T breast) | GI50 (T-47D breast) | GI50 (SR leukemia) | GI50 (KM12 colon) | GI50 (EKVX NSCLC)
c1ccc(SC(Sc2ccccc2)c2ccc3c(c2)OCO3)cc1 | > 100 µM | > 100 µM | > 100 µM | > 100 µM | > 100 µM | > 100 µM | > 100 µM | > 100 µM | > 100 µM | > 100 µM | > 100 µM | > 100 µM | – | – | – | – | – | – | – | –
COc1cccc(C2C(C(=O)O)=C(CO)Oc3cc4c(cc32)OCO4)c1 (centres undefined) | – | > 100 µM | > 100 µM | – | – | > 100 µM | – | – | – | > 100 µM | – | > 100 µM | > 100 µM | – | – | – | – | – | – | –
O=NNc1cnccn1 | > 1250 µM | > 1250 µM | > 1250 µM | > 1250 µM | > 1250 µM | > 1250 µM | > 1250 µM | > 1250 µM | > 1110 µM | > 1250 µM | > 1250 µM | > 1250 µM | > 1250 µM | – | – | – | – | – | – | –
O=C(O)c1cncc(C(=O)O)c1 | > 100 µM | > 100 µM | > 100 µM | > 100 µM | > 100 µM | > 100 µM | > 100 µM | > 100 µM | – | > 100 µM | > 100 µM | > 100 µM | – | – | – | – | – | – | – | –
O=C(O)/C=C/c1cnc[nH]1 | > 500 µM | > 500 µM | – | > 500 µM | – | > 500 µM | – | – | – | > 500 µM | > 500 µM | > 500 µM | > 500 µM | – | – | – | – | – | – | –
C=C(CN(C)C)C(=O)c1cc(C)ccc1C | > 85.1 µM | 13.8 µM | 20.4 µM | 9.52 µM | 36.2 µM | 43.5 µM | > 91.3 µM | 15.7 µM | 6.63 µM | 44.6 µM | 38.3 µM | 55.3 µM | 7.47 µM | – | – | – | – | – | – | –
O=C(N1CCC(CN=c2cc3n(-c4ccc(Cl)cc4)c4ccccc4nc-3cc2Nc2ccc(Cl)cc2)CC1)N1CC1 | – | – | – | 1.29 µM | – | 3.61 µM | 3.54 µM | 5.91 µM | 2.25 µM | – | 3.21 µM | 3.22 µM | – | 0.369 µM | 1.75 µM | 1.48 µM | 2.41 µM | 0.337 µM | 1.4 µM | 1.53 µM
COc1ccc2c(c1)O[C@H]1c3ccc(O)cc3OC[C@@H]21 | – | 32.2 µM | > 100 µM | 54.9 µM | – | – | – | – | 43.7 µM | > 100 µM | – | > 100 µM | > 100 µM | – | – | – | – | – | – | –
CCOC(=O)C1(C(=O)OCC)CSC1 | > 100 µM | > 100 µM | > 100 µM | > 100 µM | > 100 µM | > 100 µM | > 100 µM | > 100 µM | > 100 µM | 1.74 µM | > 100 µM | – | – | – | – | – | – | – | – | –
NC(CCCNc1cccc(O)c1)C(=O)O (centres undefined) | – | > 100 µM | > 100 µM | > 100 µM | – | > 100 µM | – | – | > 100 µM | > 100 µM | – | > 100 µM | > 100 µM | – | – | – | – | – | – | –
COc1ccc2c[n+](C)c3c4cc(OC)c(OC)cc4ccc3c2c1 | > 100 µM | 17.2 µM | 51.5 µM | 35.2 µM | 18.3 µM | > 100 µM | 16.1 µM | 18.9 µM | 14.4 µM | 19.3 µM | 3.85 µM | 54.7 µM | 42.2 µM | – | – | – | – | – | – | –
COC(=O)C1=COC2OC3/C(=C\c4ccc(O)c(OC)c4)C(=O)OC34C=CC1C24 (centres undefined) | – | – | 31 µM | – | – | 45.4 µM | – | – | > 100 µM | 31.7 µM | 26.8 µM | – | 32.5 µM | – | – | – | – | – | – | –
CCOc1ccc(N=Nc2ccc3oc(=O)c(/C(C)=N\NC(=O)CC(=O)Nc4ccc(Cl)cc4)cc3c2)cc1 | – | 26.5 µM | 35.5 µM | 29.6 µM | – | – | – | – | 25 µM | – | 60.7 µM | 34.7 µM | 32 µM | – | – | – | – | – | – | –
